From the NIST ThermoML archive (doi:10.1021/je300175w)
Several values for one entry are separate records, joined by “and”; a condition that tells them apart may be missing. Identical values can stand only once.

Assay: mn = molality of the nth substance listed, in mol/kg
Details: 101 kPa, Liquid; for speed of sound: Sing-around technique in a fixed-path interferometer; for mass density: Vibrating tube method

CC(C)(C)CO [2,2-dimethyl-1-propanol] + O
speed of sound
Details | 278.15 K | 283.15 K | 288.15 K | 293.15 K | 298.15 K | 308.15 K | 318.15 K
m1 = 0.0485 | 1430.2 m/s | 1452.5 m/s | 1470.7 m/s | 1486.8 m/s | 1500.7 m/s | 1523.3 m/s and 1523.1 m/s | 1539.1 m/s and 1539.2 m/s
m1 = 0.09995 | 1434.4 m/s | 1457.9 m/s and 1458 m/s | 1475.7 m/s | 1491.3 m/s | 1504.9 m/s | 1526.6 m/s and 1526.4 m/s | 1541.8 m/s
m1 = 0.1472 | 1438.2 m/s and 1438.1 m/s | 1463 m/s and 1462.9 m/s | 1480.2 m/s | 1495.5 m/s | 1508.7 m/s | 1529.7 m/s and 1529.5 m/s | 1544.3 m/s and 1544.2 m/s
m1 = 0.1999 | 1442.3 m/s | 1468.5 m/s and 1468.4 m/s | 1485.2 m/s | 1500 m/s | 1512.8 m/s | 1532.9 m/s | 1546.9 m/s

CCC(CO)(CO)COCC(CC)(CO)CO [3,3,7,7-tetrakis(hydroxymethyl)-5-oxanonane] + O
speed of sound
Details | 278.15 K | 283.15 K | 288.15 K | 293.15 K | 298.15 K | 308.15 K | 318.15 K
m1 = 0.01972 | 1429.8 m/s | 1450.6 m/s | 1469 m/s | 1485.2 m/s | 1499.3 m/s | 1522.2 m/s and 1522 m/s | 1538.2 m/s and 1538.3 m/s
m1 = 0.04105 | 1433.6 m/s and 1433.7 m/s | 1454.1 m/s | 1472.3 m/s | 1488.2 m/s | 1502.1 m/s | 1524.5 m/s and 1524.3 m/s | 1540.2 m/s and 1540.3 m/s
m1 = 0.06045 | 1437.1 m/s | 1457.3 m/s | 1475.2 m/s | 1490.9 m/s | 1504.6 m/s | 1526.6 m/s and 1526.4 m/s | 1542 m/s and 1542.1 m/s
m1 = 0.079 | 1440.3 m/s | 1460.3 m/s | 1478 m/s | 1493.4 m/s | 1506.9 m/s | 1528.6 m/s and 1528.4 m/s | 1543.7 m/s and 1543.8 m/s

CC(C)(CO)CO [2,2-dimethyl-1,3-propanediol] + O
Details | mass density | speed of sound
273.15 K, m1 = 0.1001 | 1000.25 kg/m3 | –
273.15 K, m1 = 0.2006 | 1000.57 kg/m3 | –
273.15 K, m1 = 0.2997 | 1000.91 kg/m3 | –
273.15 K, m1 = 0.4021 | 1001.28 kg/m3 | –
273.15 K, m1 = 0.5001 | 1001.66 kg/m3 | –
273.15 K, m1 = 0.6007 | 1002.07 kg/m3 | –
278.15 K, m1 = 0.1001 | – | 1435.8 m/s
278.15 K, m1 = 0.2006 | – | 1445.4 m/s
278.15 K, m1 = 0.2997 | – | 1454.5 m/s
278.15 K, m1 = 0.4021 | – | 1463.8 m/s
278.15 K, m1 = 0.5001 | – | 1472.5 m/s
278.15 K, m1 = 0.6007 | – | 1481.3 m/s
283.15 K, m1 = 0.1001 | 999.968 kg/m3 and 999.967 kg/m3 | 1456.2 m/s
283.15 K, m1 = 0.2006 | 1000.26 kg/m3 | 1464.9 m/s
283.15 K, m1 = 0.2997 | 1000.57 kg/m3 | 1473.3 m/s and 1473.4 m/s
283.15 K, m1 = 0.4021 | 1000.92 kg/m3 | 1481.9 m/s
283.15 K, m1 = 0.5001 | 1001.26 kg/m3 | 1489.9 m/s
283.15 K, m1 = 0.6007 | 1001.63 kg/m3 and 1001.64 kg/m3 | 1497.9 m/s and 1498 m/s
288.15 K, m1 = 0.1001 | 999.35 kg/m3 and 999.351 kg/m3 | 1474.1 m/s and 1474.2 m/s
288.15 K, m1 = 0.2006 | 999.623 kg/m3 | 1482.2 m/s
288.15 K, m1 = 0.2997 | 999.911 kg/m3 and 999.913 kg/m3 | 1490 m/s and 1489.9 m/s
288.15 K, m1 = 0.4021 | 1000.23 kg/m3 | 1497.8 m/s
288.15 K, m1 = 0.5001 | 1000.54 kg/m3 and 1000.55 kg/m3 | 1505.2 m/s
288.15 K, m1 = 0.6007 | 1000.88 kg/m3 | 1512.6 m/s
293.15 K, m1 = 0.1001 | 998.435 kg/m3 and 998.438 kg/m3 and 998.44 kg/m3 | 1489.9 m/s
293.15 K, m1 = 0.2006 | 998.688 kg/m3 and 998.69 kg/m3 and 998.693 kg/m3 | 1497.4 m/s and 1497.3 m/s
293.15 K, m1 = 0.2997 | 998.956 kg/m3 and 998.958 kg/m3 and 998.96 kg/m3 | 1504.5 m/s
293.15 K, m1 = 0.4021 | 999.245 kg/m3 and 999.25 kg/m3 and 999.252 kg/m3 | 1511.8 m/s
293.15 K, m1 = 0.5001 | 999.536 kg/m3 and 999.541 kg/m3 and 999.543 kg/m3 | 1518.5 m/s
293.15 K, m1 = 0.6007 | 999.846 kg/m3 and 999.849 kg/m3 and 999.851 kg/m3 | 1525.3 m/s
298.15 K, m1 = 0.1001 | 997.263 kg/m3 and 997.264 kg/m3 and 997.261 kg/m3 | 1503.7 m/s
298.15 K, m1 = 0.2006 | 997.499 kg/m3 | 1510.5 m/s and 1510.6 m/s
298.15 K, m1 = 0.2997 | 997.744 kg/m3 and 997.745 kg/m3 and 997.742 kg/m3 | 1517.1 m/s and 1517.2 m/s
298.15 K, m1 = 0.4021 | 998.013 kg/m3 and 998.015 kg/m3 | 1523.8 m/s and 1523.9 m/s
298.15 K, m1 = 0.5001 | 998.28 kg/m3 and 998.279 kg/m3 and 998.282 kg/m3 | 1530 m/s and 1530.1 m/s
298.15 K, m1 = 0.6007 | 998.56 kg/m3 and 998.559 kg/m3 and 998.562 kg/m3 | 1536.2 m/s and 1536.3 m/s
303.15 K, m1 = 0.1001 | 995.849 kg/m3 and 995.85 kg/m3 | 1515.6 m/s
303.15 K, m1 = 0.2006 | 996.066 kg/m3 and 996.067 kg/m3 | 1521.9 m/s
303.15 K, m1 = 0.2997 | 996.293 kg/m3 and 996.294 kg/m3 | 1528 m/s
303.15 K, m1 = 0.4021 | 996.538 kg/m3 and 996.539 kg/m3 | 1534.1 m/s
303.15 K, m1 = 0.5001 | 996.781 kg/m3 | 1539.9 m/s and 1539.8 m/s
303.15 K, m1 = 0.6007 | 997.037 kg/m3 and 997.036 kg/m3 | 1545.6 m/s and 1545.5 m/s
308.15 K, m1 = 0.1001 | 994.216 kg/m3 and 994.215 kg/m3 | 1525.8 m/s
308.15 K, m1 = 0.2006 | 994.415 kg/m3 and 994.416 kg/m3 | 1531.6 m/s and 1531.5 m/s
308.15 K, m1 = 0.2997 | 994.624 kg/m3 and 994.621 kg/m3 | 1537.2 m/s and 1537.1 m/s
308.15 K, m1 = 0.4021 | 994.845 kg/m3 and 994.847 kg/m3 | 1542.8 m/s
308.15 K, m1 = 0.5001 | 995.067 kg/m3 and 995.065 kg/m3 and 995.068 kg/m3 | 1548 m/s and 1548.1 m/s
308.15 K, m1 = 0.6007 | 995.297 kg/m3 and 995.296 kg/m3 and 995.298 kg/m3 | 1553.2 m/s and 1553.1 m/s
318.15 K, m1 = 0.1001 | 990.368 kg/m3 and 990.367 kg/m3 | 1541.5 m/s and 1541.4 m/s
318.15 K, m1 = 0.2006 | 990.531 kg/m3 and 990.532 kg/m3 and 990.533 kg/m3 | 1546.4 m/s and 1546.3 m/s
318.15 K, m1 = 0.2997 | 990.701 kg/m3 and 990.7 kg/m3 | 1551 m/s
318.15 K, m1 = 0.4021 | 990.883 kg/m3 and 990.882 kg/m3 | 1555.6 m/s and 1555.7 m/s
318.15 K, m1 = 0.5001 | 991.06 kg/m3 and 991.057 kg/m3 and 991.058 kg/m3 | 1559.9 m/s and 1560 m/s
318.15 K, m1 = 0.6007 | 991.242 kg/m3 and 991.241 kg/m3 | 1564.2 m/s and 1564.3 m/s
